Test results taken from PubChem BioAssay AID1259411 (Chemical Carcinogenesis Research Information System (CCRIS), 2018).
Entries after “also recorded” stand apart in the source; their conditions may differ. Calls of active or inactive are those of the source. How the calls were made is not given here.

System: rodent carcinogenicity bioassays, tumor incidence
Experiment: CCRIS carcinogenicity studies
Procedure, shortened: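 Archive of carcinogenicity, mutagenicity, tumor promotion and tumor inhibition results drawn from journals, NCI reports and other sources, expert-reviewed; covers 1985-2011 and is no longer updated.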

With `Cn1c(N)nc2c3cccnc3ccc21` the carcinogen call (Species: MONKEY, Strain/Sex: MACAQUE/MALE,FEMALE, Route: GAVAGE, Dose: 0, 10, 20 MG/KG 5/D/WK FOR DURATION OF STUDY (STUDY DURATION: 91 MO), Dose: 0, 10, 20 MG/KG 5/D/WK FOR DURATION OF STUDY (STUDY DURATION: 91 MO), Tumor Site: Type of Lesion: LIVER: HEPATOCELLULAR CARCINOMA) was “active; positive”, the carcinogen call (Species: MOUSE, Strain/Sex: B6C3F1/MALE, Route: INTRAPERITONEAL, Dose: 0, 0.625 UMOL IN 35 µL DMSO ON D 1, 8, AND 15 AFTER BIRTH (STUDY DURATION: 8 MO), Tumor Site: Type of Lesion: LIVER: HEPATOCELLULAR ADENOMA) was “active; positive” and the carcinogen call (Species: MOUSE, Strain/Sex: B6C3F1/MALE, Route: INTRAPERITONEAL, Dose: 0, 0.625 UMOL IN 35 µL DMSO ON D 1, 8, AND 15 AFTER BIRTH (STUDY DURATION: 12 MO), Tumor Site: Type of Lesion: LIVER: HEPATOCELLULAR ADENOMA) was “active; positive”. For the same compound, the carcinogen call (Species: MOUSE, Strain/Sex: B6C3F1/MALE, Route: INTRAPERITONEAL, Dose: 0, 1.25 UMOL IN 35 µL DMSO ON D 1, 8, AND 15 AFTER BIRTH (STUDY DURATION: 8 MO), Tumor Site: Type of Lesion: LIVER: HEPATOCELLULAR ADENOMA) was “active; positive”, the carcinogen call (Species: MOUSE, Strain/Sex: B6C3F1/MALE, Route: INTRAPERITONEAL, Dose: 0, 1.25 UMOL IN 35 µL DMSO ON D 1, 8, AND 15 AFTER BIRTH (STUDY DURATION: 12 MO), Tumor Site: Type of Lesion: LIVER: HEPATOCELLULAR ADENOMA, HEPATOCELLULAR CARCINOMA) was “active; positive” and the carcinogen call (Species: MOUSE, Strain/Sex: CD-1/FEMALE, Route: INTRAPERITONEAL, ORAL, Dose: 0, 5 µL OF A 14 MG/ML SOLUTION IN DMSO ON DAYS 1, 3, 5, 7, 10, 13, 17, 21, 24 AND 28 OF LIFE THEN 2/WK TO WK 10 FOLLOWED, Tumor Site: Type of Lesion: LIVER: CARCINOMA, LUNG: ADENOMA) was “active; positive”. For the same compound, the carcinogen call (Species: MOUSE, Strain/Sex: CD-1/MALE, Route: INTRAPERITONEAL, ORAL, Dose: 0, 5 µL OF A 14 MG/ML SOLUTION IN DMSO ON DAYS 1, 3, 5, 7, 10, 13, 17, 21, 24 AND 28 OF LIFE THEN 2/WK TO WK 10 FOLLOWED, Tumor Site: Type of Lesion: LIVER: CARCINOMA) was “active; positive”, the carcinogen call (Species: MOUSE, Strain/Sex: CDF1/FEMALE, Route: ORAL, Dose: 0, 0.03% IN DIET FOR UP TO 675 D (STUDY DURATION: 675 D), Tumor Site: Type of Lesion: LIVER: HEPATOCELLULAR ADENOMA OR CARCINOMA OR HEMANGIOENDOTHELIOMA, FORESTOMACH: PAPILLOMA OR SQUAMOUS CELL CARCINOMA, L, Tumor Site: Type of Lesion: LIVER: HEPATOCELLULAR ADENOMA OR CARCINOMA OR HEMANGIOENDOTHELIOMA, FORESTOMACH: PAPILLOMA OR SQUAMOUS CELL CARCINOMA, L) was “active; positive” and the carcinogen call (Species: MOUSE, Strain/Sex: CDF1/MALE, Route: ORAL, Dose: 0, 0.03% IN DIET FOR UP TO 675 D (STUDY DURATION: 675 D), Tumor Site: Type of Lesion: LIVER: HEPATOCELLULAR ADENOMA OR CARCINOMA OR HEMANGIOENDOTHELIOMA, FORESTOMACH: PAPILLOMA OR SQUAMOUS CELL CARCINOMA, L, Tumor Site: Type of Lesion: LIVER: HEPATOCELLULAR ADENOMA OR CARCINOMA OR HEMANGIOENDOTHELIOMA, FORESTOMACH: PAPILLOMA OR SQUAMOUS CELL CARCINOMA, L) was “active; positive”. For the same compound, the carcinogen call (Species: MOUSE, Strain/Sex: EU-PIM-1/FEMALE, Route: ORAL, Dose: 0, 0.03% IN DIET FOR 24 WK (STUDY DURATION: 40 WK)) was “inactive; negative”, the carcinogen call (Species: MOUSE, Strain/Sex: EU-PIM-1/MALE, Route: ORAL, Dose: 0, 0.03% IN DIET FOR 24 WK (STUDY DURATION: 40 WK)) was “inactive; negative” and the carcinogen call (Species: MOUSE, Strain/Sex: NON-TRANSGENIC WILD-TYPE/FEMALE, Route: ORAL, Dose: 0, 0.03% IN DIET FOR 24 WK (STUDY DURATION: 40 WK)) was “inactive; negative”. For the same compound, the carcinogen call (Species: MOUSE, Strain/Sex: NON-TRANSGENIC WILD-TYPE/MALE, Route: ORAL, Dose: 0, 0.03% IN DIET FOR 24 WK (STUDY DURATION: 40 WK)) was “inactive; negative”, the carcinogen call (Species: MOUSE, Strain/Sex: SEVERE COMBINED IMMUNODEFICIENT/FEMALE, Route: ORAL, Dose: 0, 300 PPM IN THE DIET FOR 78 WK (STUDY DURATION: 78 WK), Tumor Site: Type of Lesion: LIVER: HEPATOCELLULAR CARCINOMA) was “active; positive” and the carcinogen call (Species: MOUSE, Strain/Sex: TRANSGENIC EU-PIM-1/FEMALE, Route: ORAL, Dose: 0, 0.03% IN DIET FOR 24 WK (STUDY DURATION: 40 WK)) was “inactive; negative”. For the same compound, the carcinogen call (Species: MOUSE, Strain/Sex: TRANSGENIC EU-PIM-1/MALE, Route: ORAL, Dose: 0, 0.03% IN DIET FOR 24 WK (STUDY DURATION: 40 WK)) was “inactive; negative”, the carcinogen call (Species: MOUSE, Strain/Sex: WILD-TYPE/FEMALE, Route: ORAL, Dose: 0, 0.03% IN DIET FOR 24 WK (STUDY DURATION: 40 WK)) was “inactive; negative” and the carcinogen call (Species: MOUSE, Strain/Sex: WILD-TYPE/MALE, Route: ORAL, Dose: 0, 0.03% IN DIET FOR 24 WK (STUDY DURATION: 40 WK)) was “inactive; negative”. For the same compound, the carcinogen call (Species: Mouse, Strain/Sex: Non transgenic rasH2 Wild-type/ Female (10/10)/(15/15), Route: Oral, Dose: 300 ppm in the diet starting at 7 weeks of age (Study duration: 26 weeks)) was “inactive; negative: although only hyperplasia observed in wild-type mouse, forestomach pa”, the carcinogen call (Species: Mouse, Strain/Sex: Non transgenic rasH2 Wild-type/ Male (10/10)/(15/15), Route: Oral, Dose: 300 ppm in the diet starting at 7 weeks of age (Study duration: 26 wks)) was “inactive; negative; although only hyperplasia observed in wild-type mouse, forestomach pa” and the carcinogen call (Species: Mouse, Strain/Sex: Parp-1+/+ C57BL/6/Male, Route: Oral, Dose: 300 ppm in diet for 60 wk, study duration 60 wk, Tumor Site: Type of Lesion: Spleen: Malignant lymphoma (3/18)) was “active; positive (no lung adenomas or forestomach papillomas found). parp-1 deficiency (; also recorded: active; positive (however, no lung adenomas or forestomach papillomas found. parp-1 defi”. The carcinogen call (Species: RAT, Strain/Sex: F344/MALE, Route: INTRARECTAL, Dose: 0, 50.5 MG/KG IN 1.7 ML/KG DMSO INFUSED 3/WK FOR 2 MO THEN 2/WK FOR DURATION OF STUDY (STUDY DURATION: 18 MO), Tumor Site: Type of Lesion: COLON: CARCINOMA, SKIN: SEBACEOUS SQUAMOUS CELL CARCINOMA) was “active; positive”, the carcinogen call (Species: RAT, Strain/Sex: SPRAGUE-DAWLEY/FEMALE, Route: GAVAGE, Dose: 0, 0.35 MMOL/KG BW IN 0.25 ML OF 5% EMULPHOR IN WATER 3/WK FOR WK 1-4 THEN 2/WK FOR WK 5-8 FOLLOWED BY 1/WK FOR 23 WK (S, Tumor Site: Type of Lesion: MAMMARY GLAND: CARCINOMA, LIVER: TUMOR, EAR DUCT: TUMOR, Tumor Site: Type of Lesion: MAMMARY GLAND: CARCINOMA, LIVER: TUMOR, EAR DUCT: TUMOR) was “active; positive” and the carcinogen call (Species: RAT, Strain/Sex: WISTAR/MALE, Route: INTRAGASTRIC, Dose: 0, 10 MG/KG IN ACIDIFIED WATER 1/D FOR 2 WK (STUDY DURATION: 58 WK)) was “inactive; negative”.
With `c1ccc2c(c1)ccc1cc3ccc4c(c3nc12)[C@H]1O[C@H]1CC4` the carcinogen call (Species: MOUSE, Strain/Sex: CD-1/FEMALE, Route: INTRAPERITONEAL, Dose: 0, 28 NMOL (TOTAL DOSE) ADMINISTERED AS 1/7 OF DOSE WITHIN 24 HR AFTER BIRTH, 2/7 OF DOSE AT 8 D OLD, 4/7 OF DOSE AT 15, Tumor Site: Type of Lesion: LUNG: TUMOR) was “active; positive” and the carcinogen call (Species: MOUSE, Strain/Sex: CD-1/MALE, Route: INTRAPERITONEAL, Dose: 0, 28 NMOL (TOTAL DOSE) ADMINISTERED AS 1/7 OF DOSE WITHIN 24 HR AFTER BIRTH, 2/7 OF DOSE AT 8 D OLD, 4/7 OF DOSE AT 15, Tumor Site: Type of Lesion: LIVER: TUMOR, LUNG: TUMOR) was “active; positive”.
